Reference: patent publication US9005677B2, “Autophagy enhancer for treatment of neurodegenerative diseases” (Macau University of Science and Technology, priority 2013, dated 2015)
Entries after “also recorded” stand apart in the source; their conditions may differ.

Key:
PC-12 cells = test: MTT cytotoxicity assay; assay type: cell-based, rat; conditions: 0.039-100 μmol/L, 48 hours
Description: Cell culture and cytotoxicity assay: The test compound of Onjisaponin B was dissolved in DMSO at a final concentration of 100 mmol/L and stored at −20° C. Cytotoxicity was assessed using the 3-(4,5-dimethylthiazol-2-yl) -2,5-diphenyltetrazolium bromide assay as described previously. PC-12, 4000 cells were seeded on 96-well plates per well. After overnight pre-incubation, the cells were exposed to different concentrations of Onjisaponin B (0.039-100 μmol/L) for 2 days. Subsequently, 10 μL of MTT reagents was added to each well and incubated at 37° C. for 4 hours followed by the addition of 100 μL solubilization buffer (10% SDS in 0.01 mol/L HCl) and overnight incubation. Absorbance at 585 nm was determined from each well the next day. For cell viability assay measured by crystal violet staining, PC-12 cells were incubated in 35 mm disc followed by the addition of Onjisaponin B at the indicated concentrations for 24 hours. The cells were then incubated with crystal violet for 10 minutes followed by a ddH2O wash. […] Cell viability was quantified by dissolving the stained cells in 10% acetic acid (200 μL/well). The colorimetric reading of the solute mixture was then determined by spectrophotometer at OD 560 nm The percentage of cell viability was calculated using the following formula: Cell viability (%)=Cells number treated/Cells number DMSO control×100. […]

[1] = tested on: GFP-LC3 puncta formation in PC12 cells; test: Quantification of autophagy GFP-LC3 puncta; assay type: cell-based, rat; conditions: fluorescent microscopy
Description: Quantification of autophagy GFP-LC3 Puncta. GFP-LC3 puncta formation was quantified as described previously. In brief, cells grown on coverslips in a 6-well plate were fixed in 4% paraformaldehyde for 20 minutes at room temperature and then rinsed with PBS. Slides were mounted with FluorSave™ mounting media (Calbiochem, San Diego, Calif.) and examined by fluorescence microscopy. The number of GFP-positive cells with GFP-LC3 puncta formation was examined under the Nikon ECLIPSE 80i microscope. Representative images were captured with CCD digital camera Spot RT3™ (Diagnostic Instruments, Inc., Melville, N.Y.). To quantify autophagy, the percentage of cells with punctate GFP-LC3 fluorescence was calculated by counting the number of the cells with punctate GFP-LC3 fluorescence in GFP-positive cells. A minimum of 150 cells from 3 randomly selected fields was scored.

SMILES: COc1ccc(/C=C/C(=O)O[C@@H]2[C@H](O[C@@H]3O[C@@H](C)[C@H](O)[C@@H](O)[C@H]3O)[C@@H](O[C@@H]3O[C@@H](C)[C@H](O[C@@H]4OC[C@@H](O[C@@H]5O[C@H](CO)[C@H](O)[C@H](O)[C@H]5O)[C@H](O)[C@H]4O)[C@@H](O)[C@H]3O)[C@H](OC(=O)[C@]34CCC(C)(C)C[C@H]3C3=CC[C@@H]5[C@@]6(C)C[C@H](O)[C@H](O[C@@H]7O[C@H](CO)[C@@H](O)[C@H](O)[C@H]7O)[C@@](C)(C(=O)O)[C@@H]6CC[C@@]5(C)[C@]3(CO)CC4)O[C@@H]2C)cc1 [Onjisaponin B]
- Cytotoxicity in PC-12 cells (MTT assay) (PC-12 cells): no significant cytotoxic effect; also recorded: no toxicity observed overtly
- GFP-LC3 puncta formation [1]: increased the formation of GFP-LC3 puncta formation in a dose dependent manner
